Experimental data reported in US20260242324A1, “FATTY ACID MIMETICS AS MODULATORS OF GPR40 AND/OR GPR120” (Trustees of Dartmouth College, priority 2023, published 2026).
Read-outs that look alike come from different tables or passages of the source.

Key:
GPR40 = target: T1, GPR40 (Homo sapiens, UniProt O14842); assay: β-arrestin assay (PathHunter) for GPR40 agonism; assay type: cell-based; conditions: for activity at GPR40 in heat map of % maximal efficacy: single dose 15 μM, FIG. 9A, compared to oleic acid at 15 μM; for GPR40 agonism / selectivity for GPR40 over GPR120 / EC50: dose-response; for GPR40 agonism / selectivity for GPR40 over GPR120: FIG. 9B; for potency at GPR40 relative to oleic acid: multiple of oleic acid potency; for EC50: PathHunter β-arrestin
T1 construct: beta-galactosidase enzyme fragment for EFC (ProLink-type tag); expressed in transfected cells
T1 sequence (O14842 whole entry, the tested form may be a part): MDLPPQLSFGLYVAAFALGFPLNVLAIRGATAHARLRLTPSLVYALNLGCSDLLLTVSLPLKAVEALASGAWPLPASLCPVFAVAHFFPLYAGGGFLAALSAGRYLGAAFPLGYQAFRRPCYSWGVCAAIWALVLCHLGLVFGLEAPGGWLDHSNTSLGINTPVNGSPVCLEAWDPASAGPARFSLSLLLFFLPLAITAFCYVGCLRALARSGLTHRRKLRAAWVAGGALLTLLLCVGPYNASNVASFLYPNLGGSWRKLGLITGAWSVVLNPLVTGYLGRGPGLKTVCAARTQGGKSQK
Procedure: (§1) In this example, compounds from Example 1 were assessed as functional ligands (agonists) to two oleic acid receptors (GPR40 and GPR120). […]

GPR120 [1] = target: T2, GPR120 (Homo sapiens, UniProt Q5NUL3); assay: β-arrestin assay (PathHunter) for GPR120 agonism; assay type: cell-based; parameters: beta-galactosidase enzyme fragment for EFC (ProLink-type tag); expressed in transfected cells; conditions: for EC50: PathHunter β-arrestin, dose-response; for agonist efficacy at GPR120: relative to oleic acid and GW9508; for activity at GPR120 in heat map of % maximal efficacy: single dose 15 μM, FIG. 9A, compared to oleic acid at 15 μM
T2 sequence (Q5NUL3 1-361): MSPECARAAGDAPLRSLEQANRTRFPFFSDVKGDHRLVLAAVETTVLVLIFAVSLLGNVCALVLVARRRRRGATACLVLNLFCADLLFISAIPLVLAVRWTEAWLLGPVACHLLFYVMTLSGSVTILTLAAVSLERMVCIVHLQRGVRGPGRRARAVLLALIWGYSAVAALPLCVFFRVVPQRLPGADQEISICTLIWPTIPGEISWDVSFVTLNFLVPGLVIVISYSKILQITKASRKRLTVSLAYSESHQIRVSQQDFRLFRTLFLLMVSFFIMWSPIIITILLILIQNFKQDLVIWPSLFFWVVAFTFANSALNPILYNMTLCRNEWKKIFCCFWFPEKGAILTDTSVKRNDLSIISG
Procedure: as §1

MIN6 cells = conditions: reported, concentrations as low as; cited from earlier work
CHO-mGPR40 cells = target: T3, CHO-mGPR40 cells (Mus musculus, UniProt Q76JU9); conditions: reported; read-out: EC50, stimulatory activity on CHO-mGPR40 cells; cited from earlier work
T3 construct: host or cells: CHO cells transfected with mGPR40
T3 sequence (Q76JU9 whole entry): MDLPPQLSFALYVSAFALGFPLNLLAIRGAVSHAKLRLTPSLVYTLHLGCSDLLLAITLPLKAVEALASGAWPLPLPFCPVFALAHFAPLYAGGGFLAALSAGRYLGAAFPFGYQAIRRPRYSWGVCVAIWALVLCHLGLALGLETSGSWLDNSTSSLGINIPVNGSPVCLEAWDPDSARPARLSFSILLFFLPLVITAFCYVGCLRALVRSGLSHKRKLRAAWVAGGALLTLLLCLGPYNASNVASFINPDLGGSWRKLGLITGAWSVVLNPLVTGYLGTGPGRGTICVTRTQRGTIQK

GPR120 [2] = target: T2, GPR120; conditions: read-out: EC50 as agonist of GPR120; reported; cited from earlier work

Row | activity at GPR40 in heat map of % maximal efficacy (GPR40) | selectivity for GPR40 over GPR120 (GPR40) | potency at GPR40 relative to oleic acid (GPR40) | activity against GPR120 (GPR120 [1]) | EC50 (GPR120 [1]) | activity at GPR120 in heat map of % maximal efficacy (GPR120 [1]) | Structure (SMILES) | GPR40 agonism (GPR40) | agonist efficacy at GPR120 (GPR120 [1]) | further results
1 | enriched for activity at GPR40 | – | – | – | – | – | CCCCCCCCCC/C=C(/C)C/C(C)=C/[C@H](C)CC(=O)O [Compound 1-A] | – | – | –
2 | enriched for activity at GPR40 | substantial selectivity over GPR120 | – | – | – | – | CCCCCCCCC[C@@H](C)/C=C(/C)C/C(C)=C/[C@H](C)CC(=O)O [Compound 1-C] | exceptionally selective and potent agonists of GPR40 | – | –
3 | enriched for activity at GPR40 | substantial selectivity over GPR120 | twelve times greater than oleic acid | – | – | – | CCCCCCCCC[C@H](C)/C=C(/C)C/C(C)=C/[C@H](C)CC(=O)O [Compound 1-E] | exceptionally selective and potent agonists of GPR40 | – | –
4 | – | substantial selectivity over GPR120 | – | – | – | – | CCCCCCCCC[C@H](C)/C=C(/C)C/C(C)=C/[C@@H](C)CC(=O)O [Compound 1-F] | exceptionally selective and potent agonists of GPR40 | – | –
5 | – | – | approximately 6 fold | agonist activity against GPR120 | 1 to 7 µM | enriched for activity at GPR120 | CCCCCCC[C@@H](C)/C=C(/C)C/C(C)=C/[C@H](C)CCCC(=O)O [Compound 2-C] | effective agonists of GPR40 | agonist efficacy at a fraction of what is observed with oleic acid and GW9508 | –
6 | – | – | approximately 6 fold | – | 1 to 7 µM | enriched for activity at GPR120 | CCCCCCC[C@@H](C)/C=C(/C)C/C(C)=C/[C@@H](C)CCCC(=O)O [Compound 2-D] | effective agonists of GPR40 | agonist efficacy at a fraction of what is observed with oleic acid and GW9508 | –
7 | – | – | approximately 6 fold | – | 1 to 7 µM | enriched for activity at GPR120 | CCCCCCC[C@H](C)/C=C(/C)C/C(C)=C/[C@H](C)CCCC(=O)O [Compound 2-E] | effective agonists of GPR40 | agonist efficacy at a fraction of what is observed with oleic acid and GW9508 | selectivity for GPR120 (GPR120 [1]; GPR120 over GPR40): 5 fold; enhanced potency (GPR120 [1]; versus oleic acid or GW9508): 7-15 fold
8 | – | – | – | inactive against GPR120 | – | – | CCC[C@@H](C)/C=C(/C)C/C(C)=C/[C@H](C)CCCCCCCC(=O)O [Compound 4-C] | – | – | –
9 | – | – | – | – | – | – | O=C(O)CCc1ccc(NCc2cccc(Oc3ccccc3)c2)cc1 [GW9508, reference compound] | – | – | EC50 (GPR40): 1 µM

Row | Structure (SMILES) | activity at GPR40 in heat map of % maximal efficacy (GPR40) | selectivity for GPR40 over GPR120 (GPR40) | potency at GPR40 relative to oleic acid (GPR40) | activity against GPR120 (GPR120 [1]) | EC50 (GPR120 [1]) | activity at GPR120 in heat map of % maximal efficacy (GPR120 [1]) | GPR40 agonism (GPR40) | agonist efficacy at GPR120 (GPR120 [1]) | further results
10 | CCCCCCCC/C=C\CCCCCCCC(=O)O [oleic acid, reference compound] | – | – | – | agonist activity against GPR120 | 15 µM | – | – | – | concentration inducing insulin secretion in MIN6 cells (MIN6 cells): ≥ 1 µM; EC50 (CHO-mGPR40 cells): 2 µM; EC50 (GPR120 [2]): 12 µM; EC50 (GPR40): 37 µM; right shift of reporter assay results (GPR40; versus reported values, receptor not specified): ~ 20 fold
